Here are results for 11 compounds from ChEMBL document CHEMBL1201862, “PubChem BioAssay data set” (2004).

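Five compound concentrations were applied to cells in 96-well plates for 48 hours; endpoints were derived by simple linear interpolation of the resulting dose-response curve. GI50 is the concentration that inhibits growth by half.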 Calls of active or inactive are those of the source. Cut-off read from the data, not from the text of the source: active = GI50 up to about 1.1 µM and inactive = higher.

Among the test systems are SK-OV-3; EKVX; UACC-62; SF-268; SW-620; DU-145; UACC-257; PC-3; OVCAR-3; KM12; K562; BT-549; NCI-H226; SNB-19; HOP-92; OVCAR-5; SK-MEL-5; TK-10; MCF7; Hs-578T.
What all share (assay): growth of human tumour cells (NCI), 48 h

For `Cc1cccc2c1nc1n2C(=O)c2ccccc2-1`, the GI50 in the assay with SK-OV-3, in the assay on EKVX, in the assay on UACC-62, in the assay with SF-268, in the assay with SW-620 and in the assay with DU-145 was > 100 µM (inactive) throughout. Moreover, the GI50 in the assay on UACC-257, with PC-3, with OVCAR-3, with KM12, in the assay on K562 and in the assay with BT-549 was > 100 µM (inactive) in each case. The GI50 in the assay on NCI-H226, with SNB-19, in the assay on HOP-92, with OVCAR-5, in the assay with SK-MEL-5 and in the assay on TK-10 was > 100 µM (inactive) in each case. Further, the GI50 in the assay on MCF7 is > 100 µM (inactive).

For `CC(C)(C)C1CCC2c3c([nH]c4ccccc34)C3C(=O)N(c4ccccc4Cl)C(=O)C3C2C1` (centres undefined), the GI50 is 22.8 µM (inactive) in the assay with SK-OV-3; 6.65 µM (inactive) in the assay on EKVX; 14 µM (inactive) in the assay on UACC-62; 14.4 µM (inactive) with SF-268; 7.94 µM (inactive) in the assay on SW-620; 15.1 µM (inactive) in the assay on DU-145. The GI50 in the assay on UACC-257 was 31.6 µM (inactive); in the assay with PC-3, 5.31 µM (inactive); in the assay with OVCAR-3 it was 15.6 µM (inactive); in the assay on Hs-578T, 10.4 µM (inactive); in the assay with K562, 9.79 µM (inactive); with BT-549, 23.8 µM (inactive). Moreover, the GI50 was > 10 µM (inactive) with NCI-H226; 35.8 µM (inactive) in the assay on SNB-19; 0.15 µM (active) in the assay on HOP-92; > 10 µM (inactive) with OVCAR-5; 14.1 µM (inactive) in the assay with SK-MEL-5; 19.4 µM (inactive) in the assay with TK-10.

On to `CCOc1ccc(N/C(=C(/C(Cl)=C(/Cl)NC(C)(C)C)[N+](=O)[O-])n2nnc3ccccc32)cc1`, for which the GI50 in the assay on SK-OV-3 was 59.8 µM (inactive); in the assay on EKVX, 39 µM (inactive); in the assay with UACC-62, 22.8 µM (inactive); in the assay with SF-268, 16.7 µM (inactive); with SW-620 it was 19.2 µM (inactive); in the assay with UACC-257 it was 53.7 µM (inactive). In addition, the GI50 with PC-3 is 28.7 µM (inactive); with OVCAR-3, 25.9 µM (inactive); with Hs-578T, 11 µM (inactive); with KM12 it was 21.1 µM (inactive); with K562, > 100 µM (inactive); with BT-549, 17.9 µM (inactive). Also, the GI50 in the assay with NCI-H226 was > 100 µM (inactive); with SNB-19 it was 47.6 µM (inactive); in the assay on OVCAR-5, 31.6 µM (inactive); in the assay on MCF7 it was 26.1 µM (inactive).

Regarding `COC(=O)[C@](NC(=O)OCc1ccccc1)([C@@H](C)Sc1ccc(C)cc1)C(F)(F)F`, the GI50 in the assay with SK-OV-3 was > 100 µM (inactive); with EKVX, 57.9 µM (inactive); in the assay with UACC-62, 39.2 µM (inactive); in the assay with SF-268 it was 38.4 µM (inactive); in the assay with SW-620, 27.2 µM (inactive); with DU-145, 24.7 µM (inactive). In addition, the GI50 in the assay on UACC-257 is 35 µM (inactive); with PC-3, 43 µM (inactive); in the assay on OVCAR-3 it was > 100 µM (inactive); in the assay on Hs-578T, 44.9 µM (inactive); in the assay on KM12, 42.7 µM (inactive); in the assay with K562, 23.6 µM (inactive). Further, the GI50 with BT-549 is 34.9 µM (inactive); with SNB-19, > 100 µM (inactive); in the assay with OVCAR-5, > 100 µM (inactive); with SK-MEL-5, 18.3 µM (inactive); in the assay on MCF7 it was 28.9 µM (inactive).

Consider `CN(C)CCNC(=O)c1cccc2c(NC(CS)C(=O)O)c3ccccc3nc12` (centres undefined), for which the GI50 in the assay with SK-OV-3 is 9.86 µM (inactive); with EKVX, 11.3 µM (inactive); in the assay with UACC-62, 21.6 µM (inactive); with SF-268, 7.94 µM (inactive); in the assay on SW-620, 4.05 µM (inactive); in the assay on DU-145, 10.5 µM (inactive). Moreover, the GI50 is 10.1 µM (inactive) in the assay with UACC-257; 6.07 µM (inactive) with PC-3; 13 µM (inactive) in the assay with OVCAR-3; 8.47 µM (inactive) in the assay with KM12; 3.79 µM (inactive) with K562; 14.5 µM (inactive) in the assay on BT-549. Moreover, the GI50 is 5.53 µM (inactive) in the assay on NCI-H226; 7.52 µM (inactive) in the assay on SNB-19; 19.9 µM (inactive) in the assay on HOP-92; 4.52 µM (inactive) with OVCAR-5; 3.07 µM (inactive) in the assay with SK-MEL-5; 28.8 µM (inactive) in the assay on TK-10. Besides, in the assay with MCF7, the GI50 is 2.95 µM (inactive).

Turning to `Nc1cc2nc(-c3ccccc3)cn2cn1`, the GI50 in the assay with SK-OV-3 is > 100 µM (inactive); in the assay with EKVX it was 29.3 µM (inactive); in the assay on UACC-62, 54.6 µM (inactive); with SF-268 it was > 100 µM (inactive); in the assay on SW-620 it was > 100 µM (inactive); in the assay on DU-145, > 100 µM (inactive). Besides, the GI50 was 50 µM (inactive) in the assay on PC-3; > 100 µM (inactive) in the assay on OVCAR-3; 66.2 µM (inactive) in the assay with KM12; > 100 µM (inactive) in the assay with K562; > 100 µM (inactive) in the assay on BT-549; > 100 µM (inactive) with NCI-H226. For the same compound, the GI50 with SNB-19 was > 100 µM (inactive); in the assay with OVCAR-5, 79.6 µM (inactive); with SK-MEL-5, 35.5 µM (inactive); in the assay with TK-10 it was 50.5 µM (inactive); in the assay with MCF7, 70.1 µM (inactive).

For the compound `N#CSCc1cccc(Nc2cc(=O)[nH]c(=O)[nH]2)c1`, the GI50 with SK-OV-3 was > 100 µM (inactive); with EKVX, > 100 µM (inactive); with UACC-62, 26.7 µM (inactive); in the assay with SF-268 it was 28.8 µM (inactive); with SW-620 it was 55.6 µM (inactive); with UACC-257, 85.1 µM (inactive). In addition, the GI50 in the assay on PC-3 is > 100 µM (inactive); with OVCAR-3, 54.7 µM (inactive); with Hs-578T, 46.8 µM (inactive); in the assay on KM12, 97.1 µM (inactive); in the assay on K562 it was 30.5 µM (inactive); in the assay with BT-549 it was 38 µM (inactive). Also, the GI50 with NCI-H226 is 48.3 µM (inactive); in the assay on SNB-19 it was > 100 µM (inactive); with HOP-92, 14.8 µM (inactive); in the assay on OVCAR-5, > 100 µM (inactive); with SK-MEL-5, 26.9 µM (inactive); in the assay with TK-10, > 100 µM (inactive). In addition, the GI50 with MCF7 was 7.23 µM (inactive).

In the case of `O=C(CSc1nc2ccc(I)cc2c(=O)n1Cc1ccccc1)N/N=C/c1ccccc1`, the GI50 in the assay on SK-OV-3 was 10.4 µM (inactive); in the assay on EKVX it was 26.6 µM (inactive); in the assay with UACC-62, 39.2 µM (inactive); with SF-268 it was 10.6 µM (inactive); in the assay on SW-620, > 100 µM (inactive); in the assay on DU-145, 39.3 µM (inactive). Moreover, the GI50 is 26.3 µM (inactive) in the assay on UACC-257; 10.3 µM (inactive) in the assay with PC-3; 11.6 µM (inactive) with OVCAR-3; 1.01 µM (active) with Hs-578T; 48.8 µM (inactive) in the assay with KM12; 29.6 µM (inactive) in the assay on K562. Besides, the GI50 with NCI-H226 was 29.9 µM (inactive); with SNB-19, 17.5 µM (inactive); in the assay on HOP-92, 11.5 µM (inactive); with OVCAR-5, 57 µM (inactive); in the assay on SK-MEL-5, 42.4 µM (inactive); in the assay on TK-10, 15.2 µM (inactive). Besides, the GI50 in the assay on MCF7 is 25.2 µM (inactive).

`CCO/C=C(\C(=O)OC)S(=O)(=O)c1ccc(C)cc1`: the GI50 in the assay on SK-OV-3, in the assay with EKVX, in the assay on UACC-62, in the assay with SF-268, with SW-620 and in the assay with DU-145 was > 100 µM (inactive) in each case. Also, the GI50 in the assay with UACC-257, with PC-3, with OVCAR-3, with Hs-578T, in the assay on KM12 and with K562 was > 100 µM (inactive) in each case. Also, the GI50 with NCI-H226, in the assay on SNB-19, in the assay on HOP-92, in the assay with OVCAR-5, with SK-MEL-5 and in the assay with TK-10 was > 100 µM (inactive) throughout. For the same compound, the GI50 in the assay with MCF7 is > 100 µM (inactive).

On to `COC(=O)C1(C(=O)OC)N=C(C)OC1c1ccoc1` (centres undefined), for which the GI50 in the assay on SK-OV-3, with EKVX, in the assay on UACC-62, with SW-620, in the assay on DU-145 and with UACC-257 was > 100 µM (inactive) throughout. For the same compound, the GI50 in the assay with PC-3 was > 100 µM (inactive); in the assay with OVCAR-3, > 100 µM (inactive); with KM12, > 100 µM (inactive); in the assay with K562, 99.8 µM (inactive); in the assay on BT-549 it was > 100 µM (inactive); in the assay on NCI-H226, > 100 µM (inactive). Besides, the GI50 in the assay with SNB-19, in the assay on HOP-92, with OVCAR-5, in the assay with SK-MEL-5, with TK-10 and in the assay with MCF7 was > 100 µM (inactive) each time.

Regarding `CCOc1cc(C=O)c2c(ccc3ccc(OC)c(OC)c32)c1OC`, the GI50 with SK-OV-3 is > 100 µM (inactive); in the assay with EKVX, 7.1 µM (inactive); in the assay on UACC-62, 67.8 µM (inactive); with SF-268, > 100 µM (inactive); with DU-145 it was > 100 µM (inactive); in the assay with UACC-257, 59.3 µM (inactive). In addition, the GI50 in the assay with PC-3 was 17.7 µM (inactive); in the assay with OVCAR-3 it was 31.6 µM (inactive); in the assay with Hs-578T it was 37.8 µM (inactive); in the assay on KM12, 27.2 µM (inactive); in the assay with K562, 14.5 µM (inactive); with BT-549, 32.4 µM (inactive). Besides, the GI50 in the assay with NCI-H226 was 67.1 µM (inactive); in the assay on SNB-19 it was > 100 µM (inactive); in the assay with HOP-92, > 100 µM (inactive); in the assay with OVCAR-5 it was > 100 µM (inactive); in the assay on SK-MEL-5 it was 52.4 µM (inactive); with TK-10, > 100 µM (inactive).
